Measured values as given in the supplement of paper PMC8612539.
≈ marks a conversion by molar mass, not a printed value.

Tested on: Mannheimia haemolytica
Experiment: minimum inhibitory concentration (MIC)
Description: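 Broth microdilution MIC (Sensititre BOPO7F bovine plate, CLSI methods) of 19 antimicrobials against field isolates of P. multocida, M. haemolytica, H. somni (deep nasopharyngeal swabs) and E. coli, Enterococcus spp. (rectal swabs) from weaned dairy heifers. Incubation 16-24 h at 35 C. MIC is the lowest concentration preventing visible growth. Values with <= or > lie at the tested range limits. Trimethoprim-sulfamethoxazole is given as the trimethoprim component of a 1:19 mixture.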

CNC(C)C1CCC(N)C(OC2C(N)CC(N)C(OC3OCC(C)(O)C(NC)C3O)C2O)O1 (stereo not given) [Gentamicin]
Details	minimum inhibitory concentration [µg/mL]
isolate (source animal id): 8	2 (≈ 4.19 µM)
isolate (source animal id): 13	2 (≈ 4.19 µM)
isolate (source animal id): 18	2 (≈ 4.19 µM)
isolate (source animal id): 21	2 (≈ 4.19 µM)
isolate (source animal id): 25	4 (≈ 8.38 µM)
isolate (source animal id): 27	4 (≈ 8.38 µM)
isolate (source animal id): 28	2 (≈ 4.19 µM)
isolate (source animal id): 30	2 (≈ 4.19 µM)
isolate (source animal id): 31	4 (≈ 8.38 µM)
isolate (source animal id): 32	4 (≈ 8.38 µM)
isolate (source animal id): 34	4 (≈ 8.38 µM)
isolate (source animal id): 36	4 (≈ 8.38 µM)
isolate (source animal id): 37	4 (≈ 8.38 µM)
isolate (source animal id): 40	4 (≈ 8.38 µM)
isolate (source animal id): 41	2 (≈ 4.19 µM)
isolate (source animal id): 43	4 (≈ 8.38 µM)
isolate (source animal id): 46	4 (≈ 8.38 µM)
isolate (source animal id): 49	4 (≈ 8.38 µM)
isolate (source animal id): 50	4 (≈ 8.38 µM)
isolate (source animal id): 51	2 (≈ 4.19 µM)
isolate (source animal id): 52	2 (≈ 4.19 µM)
isolate (source animal id): 53	4 (≈ 8.38 µM)
isolate (source animal id): 55	2 (≈ 4.19 µM)
isolate (source animal id): 56	2 (≈ 4.19 µM)
isolate (source animal id): 57	16 (≈ 33.5 µM)
isolate (source animal id): 100	4 (≈ 8.38 µM)
isolate (source animal id): 103	4 (≈ 8.38 µM)
isolate (source animal id): 107	4 (≈ 8.38 µM)
isolate (source animal id): 108	4 (≈ 8.38 µM)
isolate (source animal id): 112	2 (≈ 4.19 µM)
isolate (source animal id): 113	16 (≈ 33.5 µM)
isolate (source animal id): 121	4 (≈ 8.38 µM)
isolate (source animal id): 122	4 (≈ 8.38 µM)
isolate (source animal id): 123	16 (≈ 33.5 µM)
isolate (source animal id): 126	4 (≈ 8.38 µM)
isolate (source animal id): 133	2 (≈ 4.19 µM)
isolate (source animal id): 135	> 16
isolate (source animal id): 138	4 (≈ 8.38 µM)
isolate (source animal id): 141	16 (≈ 33.5 µM)
isolate (source animal id): 142	4 (≈ 8.38 µM)
isolate (source animal id): 145	4 (≈ 8.38 µM)
isolate (source animal id): 149	2 (≈ 4.19 µM)
isolate (source animal id): 151	2 (≈ 4.19 µM)
isolate (source animal id): 152	2 (≈ 4.19 µM)
isolate (source animal id): 154	2 (≈ 4.19 µM)
isolate (source animal id): 159	4 (≈ 8.38 µM)
isolate (source animal id): 162	4 (≈ 8.38 µM)
isolate (source animal id): 170	4 (≈ 8.38 µM)
isolate (source animal id): 171	2 (≈ 4.19 µM)
isolate (source animal id): 172	4 (≈ 8.38 µM)
isolate (source animal id): 173	4 (≈ 8.38 µM)
isolate (source animal id): 179	4 (≈ 8.38 µM)
isolate (source animal id): 180	2 (≈ 4.19 µM)
isolate (source animal id): 183	2 (≈ 4.19 µM)
isolate (source animal id): 186	4 (≈ 8.38 µM)
isolate (source animal id): 187	2 (≈ 4.19 µM)
isolate (source animal id): 188	2 (≈ 4.19 µM)
isolate (source animal id): 190	2 (≈ 4.19 µM)
isolate (source animal id): 191	4 (≈ 8.38 µM)
isolate (source animal id): 192	2 (≈ 4.19 µM)
isolate (source animal id): 201	2 (≈ 4.19 µM)
isolate (source animal id): 202	4 (≈ 8.38 µM)
isolate (source animal id): 209	4 (≈ 8.38 µM)
isolate (source animal id): 211	2 (≈ 4.19 µM)
isolate (source animal id): 220	4 (≈ 8.38 µM)
isolate (source animal id): 221	4 (≈ 8.38 µM)
isolate (source animal id): 223	4 (≈ 8.38 µM)
isolate (source animal id): 233	4 (≈ 8.38 µM)
isolate (source animal id): 237	4 (≈ 8.38 µM)
isolate (source animal id): 241	4 (≈ 8.38 µM)
isolate (source animal id): 252	4 (≈ 8.38 µM)
isolate (source animal id): 253	4 (≈ 8.38 µM)
isolate (source animal id): 259	2 (≈ 4.19 µM)
isolate (source animal id): 260	4 (≈ 8.38 µM)
isolate (source animal id): 262	2 (≈ 4.19 µM)
isolate (source animal id): 282	2 (≈ 4.19 µM)
isolate (source animal id): 287	4 (≈ 8.38 µM)
isolate (source animal id): 288	2 (≈ 4.19 µM)
isolate (source animal id): 291	2 (≈ 4.19 µM)
isolate (source animal id): 293	4 (≈ 8.38 µM)
isolate (source animal id): 298	2 (≈ 4.19 µM)
isolate (source animal id): 299	2 (≈ 4.19 µM)
isolate (source animal id): 300	2 (≈ 4.19 µM)
isolate (source animal id): 302	2 (≈ 4.19 µM)
isolate (source animal id): 304	2 (≈ 4.19 µM)
isolate (source animal id): 306	2 (≈ 4.19 µM)
isolate (source animal id): 308	2 (≈ 4.19 µM)
isolate (source animal id): 309	2 (≈ 4.19 µM)
isolate (source animal id): 313	4 (≈ 8.38 µM)
isolate (source animal id): 318	2 (≈ 4.19 µM)
isolate (source animal id): 320	2 (≈ 4.19 µM)
isolate (source animal id): 321	4 (≈ 8.38 µM)
isolate (source animal id): 323	2 (≈ 4.19 µM)
isolate (source animal id): 324	4 (≈ 8.38 µM)
isolate (source animal id): 326	4 (≈ 8.38 µM)
isolate (source animal id): 328	4 (≈ 8.38 µM)
isolate (source animal id): 329	4 (≈ 8.38 µM)
isolate (source animal id): 333	4 (≈ 8.38 µM)
isolate (source animal id): 335	4 (≈ 8.38 µM)
isolate (source animal id): 338	4 (≈ 8.38 µM)

NC[C@@H]1O[C@H](O[C@H]2[C@@H](O)[C@H](O[C@@H]3[C@@H](O)[C@H](N)C[C@H](N)[C@H]3O[C@H]3O[C@H](CN)[C@@H](O)[C@H](O)[C@H]3N)O[C@@H]2CO)[C@H](N)[C@@H](O)[C@@H]1O [Neomycin]
Details	minimum inhibitory concentration [µg/mL]
isolate (source animal id): 8	> 32
isolate (source animal id): 13	> 32
isolate (source animal id): 18	> 32
isolate (source animal id): 21	> 32
isolate (source animal id): 25	> 32
isolate (source animal id): 27	> 32
isolate (source animal id): 28	8 (≈ 13 µM)
isolate (source animal id): 30	> 32
isolate (source animal id): 31	16 (≈ 26 µM)
isolate (source animal id): 32	> 32
isolate (source animal id): 34	> 32
isolate (source animal id): 36	> 32
isolate (source animal id): 37	> 32
isolate (source animal id): 40	> 32
isolate (source animal id): 41	> 32
isolate (source animal id): 43	> 32
isolate (source animal id): 46	> 32
isolate (source animal id): 49	> 32
isolate (source animal id): 50	> 32
isolate (source animal id): 51	> 32
isolate (source animal id): 52	> 32
isolate (source animal id): 53	> 32
isolate (source animal id): 55	32 (≈ 52.1 µM)
isolate (source animal id): 56	> 32
isolate (source animal id): 57	> 32
isolate (source animal id): 100	> 32
isolate (source animal id): 103	> 32
isolate (source animal id): 107	> 32
isolate (source animal id): 108	> 32
isolate (source animal id): 112	> 32
isolate (source animal id): 113	> 32
isolate (source animal id): 121	> 32
isolate (source animal id): 122	> 32
isolate (source animal id): 123	> 32
isolate (source animal id): 126	> 32
isolate (source animal id): 133	> 32
isolate (source animal id): 135	> 32
isolate (source animal id): 138	> 32
isolate (source animal id): 141	> 32
isolate (source animal id): 142	> 32
isolate (source animal id): 145	> 32
isolate (source animal id): 149	≤ 4
isolate (source animal id): 151	≤ 4
isolate (source animal id): 152	8 (≈ 13 µM)
isolate (source animal id): 154	8 (≈ 13 µM)
isolate (source animal id): 159	> 32
isolate (source animal id): 162	> 32
isolate (source animal id): 170	> 32
isolate (source animal id): 171	≤ 4
isolate (source animal id): 172	> 32
isolate (source animal id): 173	> 32
isolate (source animal id): 179	> 32
isolate (source animal id): 180	> 32
isolate (source animal id): 183	> 32
isolate (source animal id): 186	> 32
isolate (source animal id): 187	> 32
isolate (source animal id): 188	> 32
isolate (source animal id): 190	8 (≈ 13 µM)
isolate (source animal id): 191	> 32
isolate (source animal id): 192	≤ 4
isolate (source animal id): 201	> 32
isolate (source animal id): 202	> 32
isolate (source animal id): 209	> 32
isolate (source animal id): 211	8 (≈ 13 µM)
isolate (source animal id): 220	> 32
isolate (source animal id): 221	> 32
isolate (source animal id): 223	> 32
isolate (source animal id): 233	> 32
isolate (source animal id): 237	8 (≈ 13 µM)
isolate (source animal id): 241	> 32
isolate (source animal id): 252	> 32
isolate (source animal id): 253	> 32
isolate (source animal id): 259	> 32
isolate (source animal id): 260	> 32
isolate (source animal id): 262	> 32
isolate (source animal id): 282	> 32
isolate (source animal id): 287	> 32
isolate (source animal id): 288	8 (≈ 13 µM)
isolate (source animal id): 291	8 (≈ 13 µM)
isolate (source animal id): 293	> 32
isolate (source animal id): 298	> 32
isolate (source animal id): 299	> 32
isolate (source animal id): 300	≤ 4
isolate (source animal id): 302	> 32
isolate (source animal id): 304	> 32
isolate (source animal id): 306	≤ 4
isolate (source animal id): 308	8 (≈ 13 µM)
isolate (source animal id): 309	8 (≈ 13 µM)
isolate (source animal id): 313	> 32
isolate (source animal id): 318	> 32
isolate (source animal id): 320	≤ 4
isolate (source animal id): 321	> 32
isolate (source animal id): 323	> 32
isolate (source animal id): 324	> 32
isolate (source animal id): 326	> 32
isolate (source animal id): 328	> 32
isolate (source animal id): 329	> 32
isolate (source animal id): 333	> 32
isolate (source animal id): 335	> 32
isolate (source animal id): 338	> 32
